Here are results for two compounds from patent US9474790B2, “Stable, protracted GLP-1/glucagon receptor co-agonists for medical use” (Novo Nordisk A/S, priority 2013, dated 2016).

Numbered stars: 1 amine (or outer) side, 2 acyl side, 3 side chain; on linkers, the order of the positions; unused ones are H or OH. Square brackets hold non-standard residues; d marks the D form. Side chains are listed from the residue outwards. Peptide text beside a SMILES is read from it. * marks the point of attachment. C18 diacid = O=C(O)CCCCCCCCCCCCCCCCC(=O)*; γGlu = O=C(O)[C@H](CCC(=O)[*:2])N[*:1]; AEEA = NCCOCCOCC(=O)O; Aib = CC(C)(N)C(=O)O

The data set in a line: in vivo. Details: species or system c57/BL6 mice. The settings on record: male, c57/BL6, mouse, sc, 10 nmol/kg. As for the experimental part:
The purpose of this assay was to assess the pharmocokinetic profiles of the glucagon derivatives of the invention in mice. The pharmacokinetic profile of glucagon-GLP1 co-agonists was tested in normal male c57/BL6 mice (approximately body weight: 30 grams), in a sparse sampling design with for example 3 mice represented at each time point (for example: t=0.25, 0.5, 1, 3, 6, 10, 24, 30 and 48 hours). The compound was dosed as a single subcutaneous dose of 10 nmol/kg at t=0. The plasma levels of the glucagon-GLP1 co-agonist compounds were determined using an ELISA/LOCI assay (see Example 80 herein). Pharmacokinetic calculations such as half-life (T1/2) maximum concentration (Cmax) and time for maximum concentration (Tmax) of the compounds were determined using the PC based software, Phoenix (WinNonLin version 6.3 from Pharsight, Certara). Samples were analysed for peptide levels using Luminescence Oxygen Channeling Immunoassay (LOCI). The donor beads were coated with streptavidin. Acceptor beads are conjugated with a monoclonal antibody specific to gGlu in the linker (NN454-1F31) while the second monoclonal antibody (1F120) specific for glucagon was biotinylated. Three reactants were combined with the analyte and formed a two-sited immuno-complex. Illumination of the complex released singlet oxygen atoms from the donor beads. They were channeled into the acceptor beads and triggered chemiluminescence which was measured in the EnVision plate reader. The amount of emitted light is proportional to the concentration of peptide. One μL sample/calibrator/control was applied to the wells of 384-well LOCI plates followed by a 15 μL mixture of the antibody-coated acceptor beads (0.5 μg/well) and the biotinylated antibody. The plates were incubated over night at 21-22° C. Following incubation, 30 μL of the streptavidin-coated donorbeads (2 μg/well) was added to each well and incubated for 30 minutes at 21-22° C. The plates were read in an Envision plate reader at 21-22° C. with a filter having a bandwidth of 520-645 nm after excitation by a 680 nm laser. The total measurement time per well was 210 ms including a 70 ms excitation time.

Broadly, the Cmax is the peak of the concentration-time curve. Usually Tmax stands for the time from dosing to the highest level. As a reminder, the half-life is how long it takes for the measured level to halve. A low value points to rapid decline. Regarding `CC(C)C[C@H](NC(=O)[C@H](CC(C)C)NC(=O)[C@H](Cc1c[nH]c2ccccc12)NC(=O)[C@H](CCC(N)=O)NC(=O)[C@@H](NC(=O)[C@H](Cc1ccccc1)NC(=O)[C@H](CCC(=O)O)NC(=O)[C@H](CCC(N)=O)NC(=O)[C@H](C)NC(=O)[C@H](C)NC(=O)[C@H](CCCCN)NC(=O)[C@H](CO)NC(=O)[C@H](CC(=O)O)NC(=O)[C@H](CC(C)C)NC(=O)[C@H](Cc1ccc(O)cc1)NC(=O)[C@H](CCCCN)NC(=O)[C@H](CO)NC(=O)[C@H](CC(C)C)NC(=O)[C@H](CC(=O)O)NC(=O)[C@H](CO)NC(=O)[C@@H](NC(=O)[C@H](Cc1ccccc1)NC(=O)[C@@H](NC(=O)CNC(=O)[C@H](CCC(N)=O)NC(=O)C(C)(C)NC(=O)[C@@H](N)Cc1c[nH]cn1)[C@@H](C)O)[C@@H](C)O)C(C)C)C(=O)N[C@@H](CC(N)=O)C(=O)N[C@@H](CCCCNC(=O)CC[C@H](NC(=O)CC[C@H](NC(=O)COCCOCCNC(=O)COCCOCCNC(=O)CC[C@H](NC(=O)CCCCCCCCCCCCCCCCC(=O)O)C(=O)O)C(=O)O)C(=O)O)C(N)=O` [Example 8, N^ε29-[(4S)-4-carboxy-4-[[(4S)-4-carboxy-4-[[2-[2-[2-[[2-[2-[2-[[(4S)-4-carboxy-4-(17-carboxyheptadecanoylamino)butanoyl]amino]ethoxy]ethoxy]acetyl]amino]ethoxy]ethoxy]acetyl]amino]butanoyl]amino]butanoyl]-[Aib2,Leu10,Lys17,Ala18,Glu21,Leu27,Lys29]-Glucagon amide] (H-H[Aib]QGTFTSDLSKYLDSKAAQEFVQWLLNK([γGlu-γGlu-AEEA-AEEA-γGlu-C18 diacid])-NH2; N-terminus assumed), the peak level (Cmax) was 45 nM, the Tmax came out at 3 h and the half-life was 23 h.
Turning to `CC(C)C[C@H](NC(=O)[C@H](CC(C)C)NC(=O)[C@H](Cc1c[nH]c2ccccc12)NC(=O)[C@H](CCC(N)=O)NC(=O)[C@@H](NC(=O)[C@H](Cc1ccccc1)NC(=O)[C@H](CCC(=O)O)NC(=O)[C@H](CCCNC(=N)N)NC(=O)[C@H](C)NC(=O)[C@H](CCCNC(=N)N)NC(=O)[C@H](CCCNC(=N)N)NC(=O)[C@H](CO)NC(=O)[C@H](CC(=O)O)NC(=O)[C@H](CC(C)C)NC(=O)[C@H](Cc1ccc(O)cc1)NC(=O)[C@H](CCCCN)NC(=O)[C@H](CO)NC(=O)[C@H](CC(C)C)NC(=O)[C@H](CC(=O)O)NC(=O)[C@H](CO)NC(=O)[C@@H](NC(=O)[C@H](Cc1ccccc1)NC(=O)[C@@H](NC(=O)CNC(=O)[C@H](CCC(N)=O)NC(=O)C(C)(C)NC(=O)[C@@H](N)Cc1c[nH]cn1)[C@@H](C)O)[C@@H](C)O)C(C)C)C(=O)N[C@@H](CC(N)=O)C(=O)N[C@@H](CCCCNC(=O)CC[C@H](NC(=O)CC[C@H](NC(=O)COCCOCCNC(=O)COCCOCCNC(=O)CC[C@H](NC(=O)CCCCCCCCCCCCCCCCC(=O)O)C(=O)O)C(=O)O)C(=O)O)C(N)=O` [Example 12, N^ε29-[(4S)-4-carboxy-4-[[(4S)-4-carboxy-4-[[2-[2-[2-[[2-[2-[2-[[(4S)-4-carboxy-4-(17-carboxyheptadecanoylamino)butanoyl]amino]ethoxy]ethoxy]acetyl]amino]ethoxy]ethoxy]acetyl]amino]butanoyl]amino]butanoyl]-[Aib2,Leu10,Arg20,Glu21,Leu27,Lys29]-Glucagon amide] (H-H[Aib]QGTFTSDLSKYLDSRRAREFVQWLLNK([γGlu-γGlu-AEEA-AEEA-γGlu-C18 diacid])-NH2), the Cmax was found to be 24.4 nM, the Tmax was 3 h and the half-life was 14 h.
